# Experimental data from patent US20250282827A1, “LIPIDATED POLYMYXIN ANALOGUES” (priority 2021, published 2025).
# Positions of bridges follow the written chain, without caps; N, C: chain ends. Non-standard residues stand in square brackets, D forms with d. Residues, ends and D or L forms follow the SMILES beside them. *: point of attachment. CH2CH2OBz(4-tBu) = CC(C)(C)c1ccc(C(=O)OCC*)cc1; Ethyl(2-decanoyloxy) = CCCCCCCCCC(=O)OCC*; Ethyl(2-butanoyloxy) = CCCC(=O)OCC*; Ethyl(2-propionyloxy) = CCC(=O)OCC*; Ethyl(2-OPiv) = CC(C)(C)C(=O)OCC*; hCys = N[C@@H](CCS)C(=O)O; Octanoyl = CCCCCCCC(=O)*; Dab = NCC[C@H](N)C(=O)O; Dap = NC[C@H](N)C(=O)O; X4 = CCCCCCCC(=O)OCC*; Mpa = O=C(O)CCS
# Tests used:
# E. coli ATCC MS8345 = format: cell-based, Escherichia coli; conditions: ATCC MS8345
# Excerpt: (§1) All 81 compounds prepared in Examples 2 and 3 underwent screening against a panel of Gram-negative bacterium to assess their ability to inhibit bacterial growth. […] The median value is presented.
# Expansion of the polymyxin macrocycle by substituting […]) offered little advantage in antimicrobial activity but was generally well tolerated although for A. baumanni and P. aeruginosa this was detrimental.
# [1] = tested on: K. pneumoniae ATCC MS6671; format: cell-based, Klebsiella pneumoniae; conditions: ATCC MS6671
# Excerpt: as §1
# K. pneumoniae ATCC 33495 = format: cell-based, Klebsiella pneumoniae; conditions: ATCC 33495
# Excerpt: as §1
# [2] = tested on: K. pneumoniae ATCC 700603; format: cell-based, Klebsiella pneumoniae; conditions: ATCC 700603
# Excerpt: as §1
# P. aeruginosa ATCC 27853 = format: cell-based, Pseudomonas aeruginosa; conditions: ATCC 27853
# Excerpt: as §1
# E. coli ATCC 25922 = format: cell-based, Escherichia coli; conditions: ATCC 25922
# Excerpt: as §1
# A. baumannii ATCC 19606 = format: cell-based, Acinetobacter baumannii; conditions: ATCC 19606
# Excerpt: as §1
smiles,measurement,setting,value
CCC(=O)OCCSC[C@H](N)C(=O)N[C@@H](CCN)C(=O)N[C@H](C(=O)N[C@@H](CCN)C(=O)N[C@H]1CCCCNC(=O)[C@H]([C@@H](C)O)NC(=O)[C@H](CCN)NC(=O)[C@H](CCN)NC(=O)[C@H](CC(C)C)NC(=O)[C@@H](Cc2ccccc2)NC(=O)[C@H](CCN)NC1=O)[C@@H](C)O [Compound 23] (H-C(Ethyl(2-propionyloxy))[Dab]T[Dab]K[Dab][dF]L[Dab][Dab]T; lactam 5-C),MIC E. coli ATCC MS8345,E. coli ATCC MS8345,>32 µg/mL
same,MIC K. pneumoniae ATCC MS6671,[1],>32 µg/mL
same,MIC K. pneumoniae ATCC 33495,K. pneumoniae ATCC 33495,4 µg/mL
same,MIC K. pneumoniae ATCC 700603,[2],>32 µg/mL
same,MIC P. aeruginosa ATCC 27853,P. aeruginosa ATCC 27853,>32 µg/mL
same,MIC E. coli ATCC 25922,E. coli ATCC 25922,4 µg/mL
same,MIC A. baumannii ATCC 19606,A. baumannii ATCC 19606,>32 µg/mL
CCCC(=O)OCCSC[C@H](N)C(=O)N[C@@H](CCN)C(=O)N[C@H](C(=O)N[C@@H](CCN)C(=O)N[C@H]1CCCCNC(=O)[C@H]([C@@H](C)O)NC(=O)[C@H](CCN)NC(=O)[C@H](CCN)NC(=O)[C@H](CC(C)C)NC(=O)[C@@H](Cc2ccccc2)NC(=O)[C@H](CCN)NC1=O)[C@@H](C)O [Compound 24] (H-C(Ethyl(2-butanoyloxy))[Dab]T[Dab]K[Dab][dF]L[Dab][Dab]T; lactam 5-C),MIC E. coli ATCC MS8345,E. coli ATCC MS8345,>32 µg/mL
same,MIC K. pneumoniae ATCC MS6671,[1],>32 µg/mL
same,MIC K. pneumoniae ATCC 33495,K. pneumoniae ATCC 33495,1 µg/mL
same,MIC P. aeruginosa ATCC 27853,P. aeruginosa ATCC 27853,>32 µg/mL
same,MIC E. coli ATCC 25922,E. coli ATCC 25922,2 µg/mL
same,MIC A. baumannii ATCC 19606,A. baumannii ATCC 19606,>32 µg/mL
CCCCCCCCCC(=O)OCCSC[C@H](N)C(=O)N[C@@H](CCN)C(=O)N[C@H](C(=O)N[C@@H](CCN)C(=O)N[C@H]1CCCCNC(=O)[C@H]([C@@H](C)O)NC(=O)[C@H](CCN)NC(=O)[C@H](CCN)NC(=O)[C@H](CC(C)C)NC(=O)[C@@H](Cc2ccccc2)NC(=O)[C@H](CCN)NC1=O)[C@@H](C)O [Compound 25] (H-C(Ethyl(2-decanoyloxy))[Dab]T[Dab]K[Dab][dF]L[Dab][Dab]T; lactam 5-C),MIC E. coli ATCC MS8345,E. coli ATCC MS8345,16 to 32 µg/mL
same,MIC K. pneumoniae ATCC MS6671,[1],>32 µg/mL
same,MIC K. pneumoniae ATCC 33495,K. pneumoniae ATCC 33495,0.5 µg/mL
same,MIC K. pneumoniae ATCC 700603,[2],2 µg/mL
same,MIC P. aeruginosa ATCC 27853,P. aeruginosa ATCC 27853,0.5 µg/mL
same,MIC E. coli ATCC 25922,E. coli ATCC 25922,2 µg/mL
same,MIC A. baumannii ATCC 19606,A. baumannii ATCC 19606,>32 µg/mL
CCC(=O)OCCSC[C@@H](N)C(=O)N[C@@H](CCN)C(=O)N[C@H](C(=O)N[C@@H](CCN)C(=O)N[C@H]1CCNC(=O)[C@H]([C@@H](C)O)NC(=O)[C@H](CCN)NC(=O)[C@H](CCN)NC(=O)[C@H](CC(C)C)NC(=O)[C@@H](Cc2ccccc2)NC(=O)[C@H](CCN)NC1=O)[C@@H](C)O [Compound 58] (H-[dC](Ethyl(2-propionyloxy))[Dab]T[Dab][Dab][Dab][dF]L[Dab][Dab]T; lactam 5-C),MIC K. pneumoniae ATCC MS6671,[1],>32 µg/mL
same,MIC K. pneumoniae ATCC 33495,K. pneumoniae ATCC 33495,2 µg/mL
same,MIC K. pneumoniae ATCC 700603,[2],4 µg/mL
same,MIC P. aeruginosa ATCC 27853,P. aeruginosa ATCC 27853,2 µg/mL
same,MIC E. coli ATCC 25922,E. coli ATCC 25922,2 µg/mL
same,MIC A. baumannii ATCC 19606,A. baumannii ATCC 19606,>32 µg/mL
CCCCCCCC(=O)OCCSC[C@@H](N)C(=O)N[C@H](C(=O)N[C@@H](CCN)C(=O)N[C@H]1CCNC(=O)[C@H]([C@@H](C)O)NC(=O)[C@H](CCN)NC(=O)[C@H](CCN)NC(=O)[C@H](CC(C)C)NC(=O)[C@@H](Cc2ccccc2)NC(=O)[C@H](CCN)NC1=O)[C@@H](C)O [Compound 77] (H-[dC](X4)T[Dab][Dab][Dab][dF]L[Dab][Dab]T; lactam 4-C),MIC E. coli ATCC 25922,E. coli ATCC 25922,0.25 µg/mL
CC(C)C[C@@H]1NC(=O)[C@@H](Cc2ccccc2)NC(=O)[C@H](CCN)NC(=O)[C@@H](NC(=O)[C@H](CCN)NC(=O)[C@@H](NC(=O)[C@H](N)CSCCOC(=O)C(C)(C)C)[C@@H](C)O)CCNC(=O)[C@H]([C@@H](C)O)NC(=O)[C@H](CCN)NC(=O)[C@H](CCN)NC1=O [Compound 79] (H-[dC](Ethyl(2-OPiv))T[Dab][Dab][Dab][dF]L[Dab][Dab]T; lactam 4-C),MIC E. coli ATCC 25922,E. coli ATCC 25922,0.25 µg/mL
CC(C)C[C@@H]1NC(=O)[C@@H](Cc2ccccc2)NC(=O)[C@H](CCN)NC(=O)[C@@H](NC(=O)[C@H](CCN)NC(=O)[C@@H](NC(=O)[C@H](N)CSCCOC(=O)c2ccc(C(C)(C)C)cc2)[C@@H](C)O)CCNC(=O)[C@H]([C@@H](C)O)NC(=O)[C@H](CCN)NC(=O)[C@H](CCN)NC1=O [Compound 80] (H-[dC](CH2CH2OBz(4-tBu))T[Dab][Dab][Dab][dF]L[Dab][Dab]T; lactam 4-C),MIC E. coli ATCC 25922,E. coli ATCC 25922,0.5 µg/mL
CCC(=O)OCCSC[C@H](N)C(=O)N[C@H](C(=O)N[C@@H](CN)C(=O)N[C@H]1CCNC(=O)[C@H]([C@@H](C)O)NC(=O)[C@H](CCN)NC(=O)[C@H](CCN)NC(=O)[C@H](CC(C)C)NC(=O)[C@@H](Cc2ccccc2)NC(=O)[C@H](CCN)NC1=O)[C@@H](C)O [Compound 81] (H-C(Ethyl(2-propionyloxy))T[Dap][Dab][Dab][dF]L[Dab][Dab]T; lactam 4-C),MIC E. coli ATCC 25922,E. coli ATCC 25922,16 µg/mL
CCC(=O)OCCSC[C@@H](N)C(=O)N[C@H](C(=O)N[C@@H](CN)C(=O)N[C@H]1CCNC(=O)[C@H]([C@@H](C)O)NC(=O)[C@H](CCN)NC(=O)[C@H](CCN)NC(=O)[C@H](CC(C)C)NC(=O)[C@@H](Cc2ccccc2)NC(=O)[C@H](CCN)NC1=O)[C@@H](C)O [Compound 82] (H-[dC](Ethyl(2-propionyloxy))T[Dap][Dab][Dab][dF]L[Dab][Dab]T; lactam 4-C),MIC E. coli ATCC 25922,E. coli ATCC 25922,1 µg/mL
CCC(=O)OCCSCCC(=O)N[C@H](C(=O)N[C@@H](CN)C(=O)N[C@H]1CCNC(=O)[C@H]([C@@H](C)O)NC(=O)[C@H](CCN)NC(=O)[C@H](CCN)NC(=O)[C@H](CC(C)C)NC(=O)[C@@H](Cc2ccccc2)NC(=O)[C@H](CCN)NC1=O)[C@@H](C)O [Compound 83] ([Mpa](Ethyl(2-propionyloxy))T[Dap][Dab][Dab][dF]L[Dab][Dab]T; lactam 4-C),MIC E. coli ATCC 25922,E. coli ATCC 25922,2 µg/mL
CCC(=O)OCCSCC[C@H](N)C(=O)N[C@H](C(=O)N[C@@H](CN)C(=O)N[C@H]1CCNC(=O)[C@H]([C@@H](C)O)NC(=O)[C@H](CCN)NC(=O)[C@H](CCN)NC(=O)[C@H](CC(C)C)NC(=O)[C@@H](Cc2ccccc2)NC(=O)[C@H](CCN)NC1=O)[C@@H](C)O [Compound 84] (H-[hCys](Ethyl(2-propionyloxy))T[Dap][Dab][Dab][dF]L[Dab][Dab]T; lactam 4-C),MIC E. coli ATCC 25922,E. coli ATCC 25922,32 µg/mL
CCC(=O)OCCSC[C@H](N)C(=O)N[C@H](C(=O)N[C@H](CO)C(=O)N[C@H]1CCNC(=O)[C@H]([C@@H](C)O)NC(=O)[C@H](CCN)NC(=O)[C@H](CCN)NC(=O)[C@H](CC(C)C)NC(=O)[C@@H](Cc2ccccc2)NC(=O)[C@H](CCN)NC1=O)[C@@H](C)O [Compound 85] (H-C(Ethyl(2-propionyloxy))T[dS][Dab][Dab][dF]L[Dab][Dab]T; lactam 4-C),MIC E. coli ATCC 25922,E. coli ATCC 25922,>128 µg/mL
CCC(=O)OCCSC[C@@H](N)C(=O)N[C@H](C(=O)N[C@H](CO)C(=O)N[C@H]1CCNC(=O)[C@H]([C@@H](C)O)NC(=O)[C@H](CCN)NC(=O)[C@H](CCN)NC(=O)[C@H](CC(C)C)NC(=O)[C@@H](Cc2ccccc2)NC(=O)[C@H](CCN)NC1=O)[C@@H](C)O [Compound 86] (H-[dC](Ethyl(2-propionyloxy))T[dS][Dab][Dab][dF]L[Dab][Dab]T; lactam 4-C),MIC E. coli ATCC 25922,E. coli ATCC 25922,2 µg/mL
CCC(=O)OCCSCCC(=O)N[C@H](C(=O)N[C@H](CO)C(=O)N[C@H]1CCNC(=O)[C@H]([C@@H](C)O)NC(=O)[C@H](CCN)NC(=O)[C@H](CCN)NC(=O)[C@H](CC(C)C)NC(=O)[C@@H](Cc2ccccc2)NC(=O)[C@H](CCN)NC1=O)[C@@H](C)O [Compound 87] ([Mpa](Ethyl(2-propionyloxy))T[dS][Dab][Dab][dF]L[Dab][Dab]T; lactam 4-C),MIC E. coli ATCC 25922,E. coli ATCC 25922,16 µg/mL
CCC(=O)OCCSCC[C@H](N)C(=O)N[C@H](C(=O)N[C@H](CO)C(=O)N[C@H]1CCNC(=O)[C@H]([C@@H](C)O)NC(=O)[C@H](CCN)NC(=O)[C@H](CCN)NC(=O)[C@H](CC(C)C)NC(=O)[C@@H](Cc2ccccc2)NC(=O)[C@H](CCN)NC1=O)[C@@H](C)O [Compound 88] (H-[hCys](Ethyl(2-propionyloxy))T[dS][Dab][Dab][dF]L[Dab][Dab]T; lactam 4-C),MIC E. coli ATCC 25922,E. coli ATCC 25922,>64 µg/mL
CCCC(=O)OCCSC[C@@H](N)C(=O)N[C@H](C(=O)N[C@@H](CCN)C(=O)N[C@H]1CCNC(=O)[C@H]([C@@H](C)O)NC(=O)[C@H](CCN)NC(=O)[C@H](CCN)NC(=O)[C@H](CC(C)C)NC(=O)[C@@H](Cc2ccccc2)NC(=O)[C@H](CCN)NC1=O)[C@@H](C)O [Compound 89] (H-[dC](Ethyl(2-butanoyloxy))T[Dab][Dab][Dab][dF]L[Dab][Dab]T; lactam 4-C),MIC E. coli ATCC MS8345,E. coli ATCC MS8345,32 µg/mL
same,MIC K. pneumoniae ATCC MS6671,[1],>32 µg/mL
same,MIC K. pneumoniae ATCC 33495,K. pneumoniae ATCC 33495,1 µg/mL
same,MIC K. pneumoniae ATCC 700603,[2],1 µg/mL
same,MIC P. aeruginosa ATCC 27853,P. aeruginosa ATCC 27853,2 µg/mL
same,MIC A. baumannii ATCC 19606,A. baumannii ATCC 19606,4 µg/mL
"CCCCCCCC(=O)N[C@@H](CCN)C(=O)N[C@H](C(=O)N[C@@H](CCN)C(=O)N[C@H]1CCNC(=O)[C@H]([C@@H](C)O)NC(=O)[C@H](CCN)NC(=O)[C@H](CCN)NC(=O)[C@H](CC(C)C)NC(=O)[C@@H](Cc2ccccc2)NC(=O)[C@H](CCN)NC1=O)[C@@H](C)O [polymyxin B3, reference compound] (Octanoyl-[Dab]T[Dab][Dab][Dab][dF]L[Dab][Dab]T; lactam 4-C (inferred); N-terminus assumed)",activity against E. coli (MIC),E. coli ATCC 25922,0.25 µg/mL
